In brackets after ≈: the same amount, converted by molar mass.
How the values were obtained:
Staphylococcus aureus [1] = assay: Antimicrobial activity against methicillin-resistant Staphylococcus aureus by broth microdilution method; assay type: functional
Staphylococcus aureus [2] = assay: Antimicrobial activity against methicillin-susceptible Staphylococcus aureus by broth microdilution method; assay type: functional
Staphylococcus aureus [3] = assay: Antimicrobial activity against methicillin-resistant Staphylococcus aureus by broth microdilution method in presence of 50% human plasma; assay type: functional
Staphylococcus aureus [4] = assay: Antimicrobial activity against methicillin-susceptible Staphylococcus aureus by broth microdilution method in presence of 50% human plasma; assay type: functional
Staphylococcus aureus [5] = assay: Bactericidal activity against methicillin-resistant Staphylococcus aureus after 24 hrs by M26-A method; assay type: functional
Staphylococcus aureus [6] = assay: Bactericidal activity against methicillin-susceptible Staphylococcus aureus after 24 hrs by M26-A method; assay type: functional
Staphylococcus aureus [7] = assay: Bactericidal activity against methicillin-resistant Staphylococcus aureus after 24 hrs by M26-A method in presence of 50% human plasma; assay type: functional
Staphylococcus aureus [8] = assay: Bactericidal activity against methicillin-susceptible Staphylococcus aureus after 24 hrs by M26-A method in presence of 50% human plasma; assay type: functional
Staphylococcus aureus [9] = assay: Ratio of MBC to MIC for methicillin-susceptible Staphylococcus aureus; assay type: functional
Staphylococcus aureus [10] = assay: Ratio of MBC to MIC for methicillin-susceptible Staphylococcus aureus in presence of 50% human plasma; assay type: functional
Staphylococcus aureus [11] = assay: Bactericidal activity against methicillin-susceptible Staphylococcus aureus ATCC 25923 on CAMHB media at 4 times MIC by time kill analysis; assay type: functional
Staphylococcus aureus [12] = assay: Bactericidal activity against methicillin-susceptible Staphylococcus aureus ATCC 25923 on CAMHB media at 4 times MIC by time kill analysis in presence of 50% human plasma; assay type: functional
Staphylococcus aureus [13] = assay: Bactericidal activity against methicillin-resistant Staphylococcus aureus 50478 on CAMHB media at 4 times MIC by time kill analysis; assay type: functional
Staphylococcus aureus [14] = assay: Bactericidal activity against methicillin-resistant Staphylococcus aureus 50478 on CAMHB media at 4 times MIC by time kill analysis in presence of 50% human plasma; assay type: functional
Staphylococcus aureus [15] = assay: Bactericidal activity against methicillin-resistant Staphylococcus aureus 3817 on CAMHB media at 4 times MIC by time kill analysis; assay type: functional
Staphylococcus aureus [16] = assay: Bactericidal activity against methicillin-resistant Staphylococcus aureus 6 on CAMHB media at 4 times MIC by time kill analysis in presence of 50% human plasma; assay type: functional
Staphylococcus aureus [17] = assay: Bactericidal activity against methicillin-resistant Staphylococcus aureus 20 on CAMHB media at 4 times MIC by time kill analysis; assay type: functional
Staphylococcus aureus [18] = assay: Bactericidal activity against methicillin-resistant Staphylococcus aureus 20 on CAMHB media at 4 times MIC by time kill analysis in presence of 50% human plasma; assay type: functional
[19] = Plasma protein binding in human; assay type: ADME, cell-free; conditions: read-out: PPB (converted)
Staphylococcus aureus [20] = assay: Ratio of MIC for glycopeptide-nonsusceptible Staphylococcus aureus NJ992 in presence of 50% heat inactivated serum to MIC for glycopeptide-nonsusceptible Staphylococcus aureus NJ992; assay type: functional
Staphylococcus aureus [21] = assay: Bactericidal activity against methicillin-resistant Staphylococcus aureus 3817 on CAMHB media at 4 times MIC by time kill analysis in presence of 50% human plasma; assay type: functional
Staphylococcus aureus [22] = assay: Bactericidal activity against methicillin-resistant Staphylococcus aureus 6 on CAMHB media at 4 times MIC by time kill analysis; assay type: functional

Row | Structure (SMILES) | MIC (Staphylococcus aureus [1]) [µg/mL] | MIC (Staphylococcus aureus [2]) [µg/mL] | MIC (Staphylococcus aureus [3]) [µg/mL] | MIC (Staphylococcus aureus [4]) [µg/mL] | MBC (Staphylococcus aureus [5]) [µg/mL] | MBC (Staphylococcus aureus [6]) [µg/mL] | MBC (Staphylococcus aureus [7]) [µg/mL] | MBC (Staphylococcus aureus [8]) [µg/mL] | Ratio (Staphylococcus aureus [9]) | Ratio (Staphylococcus aureus [10]) | Time (Staphylococcus aureus [11]) [h] | Time (Staphylococcus aureus [12]) [h] | Time (Staphylococcus aureus [14]) [h] | Time (Staphylococcus aureus [15]) [h] | Time (Staphylococcus aureus [17]) [h] | Time (Staphylococcus aureus [18]) [h] | fraction unbound [19] | other results
1 | COc1cc(Cc2cnc(N)nc2N)c2c(c1OC)OC(C1CC1)C=C2 (configuration not stated) | 0.09 (≈ 0.254 µM) | 0.09 (≈ 0.254 µM) | 0.11 | 0.11 | 0.1 (≈ 0.282 µM) | 0.1 (≈ 0.282 µM) | 0.11 | 0.11 | 1 | 1 | 6.2 | 7.2 | 6 | 6.1 | 5.5 | 5 | 0.07 | Time (Staphylococcus aureus [13]): 6.8 h; Time (Staphylococcus aureus [16]): 7.6 h; Ratio (Staphylococcus aureus [20]): 1
2 | CC(=O)N[C@@H]1[C@H](Oc2c3cc4cc2Oc2ccc(cc2Cl)[C@@H](O[C@@H]2O[C@@H](CO)[C@@H](O)[C@H](O)[C@@H]2NC(C)=O)[C@@H]2NC(=O)[C@H](NC(=O)[C@@H]4NC(=O)[C@H]4NC(=O)[C@@H](Cc5ccc(c(Cl)c5)O3)NC(=O)[C@H](N)c3ccc(O)c(c3)Oc3cc(O)cc4c3)c3ccc(O)c(c3)-c3c(O[C@H]4O[C@H](CO)[C@@H](O)[C@@H](O)[C@@H]4O)cc(O)cc3[C@@H](C(=O)O)NC2=O)O[C@@H](CO)[C@@H](O)[C@@H]1O | 1.07 (≈ 0.605 µM) | 1.07 (≈ 0.605 µM) | 1.23 | 1.23 | 1.41 (≈ 0.798 µM) | 1.41 (≈ 0.798 µM) | 1.68 | 1.68 | 1 | 1 | – | – | – | – | – | – | – | –
3 | CC(=O)O[C@H]1C[C@@]2(C)[C@@H](C[C@@H](O)[C@H]3[C@@]4(C)CC[C@@H](O)[C@@H](C)[C@@H]4CC[C@@]32C)/C1=C(\CCC=C(C)C)C(=O)O [FUSIDIC ACID] | 0.14 (≈ 0.271 µM) | 0.14 (≈ 0.271 µM) | 6.73 | 6.73 | – | – | – | – | 2 | 4 | – | – | – | – | – | – | 0.03 | –
4 | CC(=O)NC[C@H]1CN(c2ccc(N3CCOCC3)c(F)c2)C(=O)O1 [LINEZOLID] | 3.73 (≈ 11.1 µM) | 3.73 (≈ 11.1 µM) | 2.55 | 2.55 | > 32 | > 32 | > 32 | > 32 | – | – | – | – | – | – | – | – | – | –
5 | CN[C@H](CC(C)C)C(=O)N[C@H]1C(=O)N[C@@H](CC(N)=O)C(=O)N[C@H]2C(=O)N[C@H]3C(=O)N[C@H](C(=O)N[C@H](C(=O)O)c4cc(O)cc(O)c4-c4cc3ccc4O)[C@H](O)c3ccc(c(Cl)c3)Oc3cc2cc(c3O[C@@H]2O[C@H](CO)[C@@H](O)[C@H](O)[C@H]2O[C@H]2C[C@](C)(N)[C@H](O)[C@H](C)O2)Oc2ccc(cc2Cl)[C@H]1O [VANCOMYCIN] | 1.62 (≈ 1.12 µM) | 1.62 (≈ 1.12 µM) | 1.46 | 1.46 | 1.74 (≈ 1.2 µM) | 1.74 (≈ 1.2 µM) | 1.52 | 1.52 | – | – | 15 | 12.8 | 12 | 17 | 10.6 | 17 | 0.45 | Time (Staphylococcus aureus [21]): 15.6 h; Time (Staphylococcus aureus [22]): 13.5 h
